Reference: PMC3328449, “Inhibition of Diacylglycerol–Sensitive TRPC Channels by Synthetic and Natural Steroids” (PLoS ONE, 2012)

Key:
A7r5 cells = assay: Fura-2 measurement of AVP-induced Ca2+ release in A7r5 cells; type: cell-based; conditions: 10 µM, 5 min pre-incubation, calcium-free solution, 100 nM AVP
Method: A7r5 cells (ATCC, Rockville, USA) were maintained in DMEM (with glutaMAX I, 4.5 g/l glucose and […] sodium pyruvate), supplemented with 10% (v/v) fetal bovine serum (PAA, Pasching, Austria). Cells grown on poly-L-lysine-coated 24-mm glass coverslips were loaded in cell culture medium supplemented with 2 µM fura-2 AM (30 min, 37°C) and subsequently allowed to de-esterify in standard extracellular solution (15 min, 37°C). Changes in [Ca^2+]i were measured using a monochromator-based imaging system (T.I.L.L. Photonics, Gräfelfing, Germany) mounted on an inverted Axiovert 200 microscope (Zeiss, Göttingen, Germany). Fluorescence was excited alternating at 340 nm and 380 nm, long-pass filtered at 440 nm and captured at 2 s intervals. The 340/380 nm excitation ratio of selected cell areas was calculated with T.I.L.L. vision 4.0 software (T.I.L.L. Photonics) after correction for background fluorescence.

mTRPC4ß = target: T1, mTRPC4ß (Mus musculus, UniProt Q9QUQ5); assay: Trypsin-induced Ca2+ entry, fluo-4 fluorometric imaging plate reader, TRPC4 HEK-FITR cells; type: cell-based
T1 construct: expressed in transfected cells
T1 sequence (Q9QUQ5 1-890 isoform Q9QUQ5-2): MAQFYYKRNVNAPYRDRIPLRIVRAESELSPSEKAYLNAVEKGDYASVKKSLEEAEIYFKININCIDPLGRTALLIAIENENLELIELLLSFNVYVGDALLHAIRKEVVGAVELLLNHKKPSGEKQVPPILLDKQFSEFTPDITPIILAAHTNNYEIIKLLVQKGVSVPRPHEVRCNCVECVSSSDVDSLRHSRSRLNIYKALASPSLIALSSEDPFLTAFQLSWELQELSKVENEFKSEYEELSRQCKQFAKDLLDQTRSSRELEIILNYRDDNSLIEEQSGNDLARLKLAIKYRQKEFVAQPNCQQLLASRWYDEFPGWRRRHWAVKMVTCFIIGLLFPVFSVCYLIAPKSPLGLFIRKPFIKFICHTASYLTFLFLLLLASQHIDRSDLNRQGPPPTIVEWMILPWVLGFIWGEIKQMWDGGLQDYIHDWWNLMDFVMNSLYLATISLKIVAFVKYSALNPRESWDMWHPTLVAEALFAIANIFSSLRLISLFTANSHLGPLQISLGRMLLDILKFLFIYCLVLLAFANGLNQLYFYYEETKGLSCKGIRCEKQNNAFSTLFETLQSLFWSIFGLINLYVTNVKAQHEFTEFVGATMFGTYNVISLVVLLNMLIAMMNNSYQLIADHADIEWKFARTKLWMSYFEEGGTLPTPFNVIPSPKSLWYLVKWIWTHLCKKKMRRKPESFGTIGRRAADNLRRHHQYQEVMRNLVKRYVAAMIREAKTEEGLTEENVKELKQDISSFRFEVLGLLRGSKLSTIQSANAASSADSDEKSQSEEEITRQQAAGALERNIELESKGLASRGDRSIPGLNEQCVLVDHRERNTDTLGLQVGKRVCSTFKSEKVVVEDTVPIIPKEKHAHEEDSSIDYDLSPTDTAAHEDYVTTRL
Method: Cells were grown at 37°C in a humidified atmosphere (5% or 7% CO2) under standard cell culture conditions. Stable human embryonic kidney (HEK) cell lines expressing recombinant mTRPC4ß (GenBank accession number AAC05178); mTRPC5 (GenBank accession number NM_009428) or hTRPC6 (GenBank accession number AF080394) under the control of a tetracycline-inducible promoter were generated using the Flp-In T-Rex (FITR) system (Invitrogen, Karlsruhe, Germany). […]
Cells grown to an almost confluent monolayer on black poly-D-lysine coated 96-well plates (Greiner, Frickenhausen, Germany) were washed with standard extracellular solution (140 mM NaCl, 1 mM MgCl2, 5.4 mM KCl, 2 mM CaCl2, 10 mM HEPES, 10 mM glucose, pH 7.35) and stained (30 min, room temperature) with dye solution (2 µM fluo-4 AM, 0.02% pluronic F127, 0.1% bovine serum albumin in standard extracellular solution). […] Fluo-4 fluorescence was excited at 488 nm with an argon laser and measured using a fluorometric imaging plate reader (Molecular Devices, Sunnyvale, USA). […]
TRPC4- and TRPC5-mediated Ca^2+ influx was stimulated by application of trypsin that activates endogenous Gq-coupled protease activated receptors in HEK cells. […] Compound effects were then calculated from the area under the curve and normalized to the Ca^2+ influx into trypsin-stimulated, non-compound-treated cells. […]

Compound	Sensitivity of AVP-induced Ca2+ release (A7r5 cells)	IC50 (mTRPC4ß; TRPC4 HEK-FITR cells, fluo-4, 200 nM trypsin, read-out: IC50, inhibition of trypsin-induced Ca2+ entry via TRPC4) [µM]	Hill slope n, inhibition of TRPC4-mediated Ca2+ entry (mTRPC4ß; fit to Hill model)
C#C[C@]1(OC(C)=O)CC[C@H]2[C@@H]3CCC4=CC(=NO)CC[C@@H]4[C@H]3CC[C@@]21CC (mixture of isomers) [norgestimate]	not sensitive		
CC(=O)[C@H]1CC[C@H]2[C@@H]3CCC4=CC(=O)CC[C@]4(C)[C@H]3CC[C@]12C [progesterone]		6.2	1.15
